Molecular target: T1, CFTR (Homo sapiens, UniProt P13569, DEL508-508)
T1 construct: Primary CF airway epithelial cells were obtained from the UNC Cystic Fibrosis Tissue Procurement and Cell Culture Core; host or cells: primary CF airway epithelial cells
Test: Equivalent current assay in Primary CF airway epithelial cells (NAUC)
Format: cell-based
Conditions: 24 h, normalized to VX809 (3 μM) positive control; for Nauc @ 3 μM: 3 μM test compound; for Nauc @ 10 μM: 10 μM test compound
Method in brief: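 Primary CF airway epithelia differentiated ≥4 weeks at air-liquid interface, treated basolaterally 24 h at 37 °C with test compounds in combination with VX809, 0.1% DMSO vehicle. Equivalent current recorded after 5 μM benzamil, 10 μM forskolin plus 1 μM VX770, then CFTR-172/bumetanide 20 μM; vehicle-subtracted AUC normalized to 3 μM VX809 (NAUC), median of n≥4, sigmoid fit for EC50.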

T1 sequence (P13569 with tags, fused parts or gaps DEL508-508): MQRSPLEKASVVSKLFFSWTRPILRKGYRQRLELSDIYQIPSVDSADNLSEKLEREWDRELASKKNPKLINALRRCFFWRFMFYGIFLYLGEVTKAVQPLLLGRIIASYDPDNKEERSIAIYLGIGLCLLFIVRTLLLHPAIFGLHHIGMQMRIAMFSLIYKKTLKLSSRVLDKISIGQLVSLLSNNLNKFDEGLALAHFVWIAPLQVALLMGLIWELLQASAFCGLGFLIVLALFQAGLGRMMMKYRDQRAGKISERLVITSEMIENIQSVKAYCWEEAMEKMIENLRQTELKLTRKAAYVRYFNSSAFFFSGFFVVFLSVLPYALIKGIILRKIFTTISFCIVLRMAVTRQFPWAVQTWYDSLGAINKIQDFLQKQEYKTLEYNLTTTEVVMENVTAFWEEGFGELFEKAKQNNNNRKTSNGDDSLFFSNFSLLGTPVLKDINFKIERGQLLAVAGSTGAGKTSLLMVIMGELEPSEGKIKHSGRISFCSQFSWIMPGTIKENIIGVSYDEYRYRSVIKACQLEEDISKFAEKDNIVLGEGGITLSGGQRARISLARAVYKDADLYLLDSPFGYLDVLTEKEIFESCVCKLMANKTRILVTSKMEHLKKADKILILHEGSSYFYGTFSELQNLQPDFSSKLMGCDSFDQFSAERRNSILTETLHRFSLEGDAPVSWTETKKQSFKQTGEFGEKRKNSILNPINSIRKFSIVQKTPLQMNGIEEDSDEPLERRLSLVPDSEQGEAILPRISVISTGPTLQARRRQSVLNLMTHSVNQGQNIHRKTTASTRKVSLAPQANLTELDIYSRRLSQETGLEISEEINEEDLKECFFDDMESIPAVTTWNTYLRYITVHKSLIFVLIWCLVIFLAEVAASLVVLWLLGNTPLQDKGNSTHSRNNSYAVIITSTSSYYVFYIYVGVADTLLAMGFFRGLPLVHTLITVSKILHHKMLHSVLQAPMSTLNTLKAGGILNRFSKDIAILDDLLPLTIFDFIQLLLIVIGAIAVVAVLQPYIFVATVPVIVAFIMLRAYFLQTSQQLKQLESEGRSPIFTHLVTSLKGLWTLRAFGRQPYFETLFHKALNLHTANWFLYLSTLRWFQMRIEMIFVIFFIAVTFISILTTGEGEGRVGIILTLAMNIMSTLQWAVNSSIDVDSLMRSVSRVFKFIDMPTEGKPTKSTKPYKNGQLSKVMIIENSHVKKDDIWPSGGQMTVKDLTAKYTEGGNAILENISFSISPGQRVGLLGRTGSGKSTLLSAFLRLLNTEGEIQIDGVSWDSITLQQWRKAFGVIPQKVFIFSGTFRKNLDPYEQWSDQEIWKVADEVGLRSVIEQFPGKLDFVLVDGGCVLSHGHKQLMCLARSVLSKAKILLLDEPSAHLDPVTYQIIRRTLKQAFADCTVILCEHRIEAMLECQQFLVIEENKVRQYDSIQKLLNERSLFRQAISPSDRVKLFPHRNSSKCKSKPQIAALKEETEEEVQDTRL

Row | Structure (SMILES) | Nauc @ 3 μM | Nauc @ 10 μM
1 | O=C1C2C3C[C@H](CF)CN3C3(C(=O)Nc4c(Cl)cc(Cl)cc43)C2C(=O)N1c1cc(Cl)cc(Cl)c1 (some centres unmarked) [Example 109] | ++ (NAUC “++” refers to an observed NAUC 170-140% of positive control) | ++ (NAUC “++” refers to an observed NAUC 170-140% of positive control)
2 | C[C@]1(O)CC2C3C(=O)N(c4nnn[nH]4)C(=O)C3C3(C(=O)Nc4c(Cl)cc(Cl)cc43)N2C1 (stereo partly drawn) [Example 8, (7′S)-5,7-Dichloro-7′-hydroxy-7′-methyl-2′-(1H-tetrazol-5-yl)-3a′,6′,7′,8′,8a′,8b′-hexahydro-1′H-spiro[indoline-3,4′-pyrrolo[3,4-a]pyrrolizine]-1′,2,3′(2′H)-trione] | +++ (NAUC “+++” refers to an observed NAUC >170% of positive control) | + (NAUC “+” refers to an observed NAUC <140% of positive control)
3 | O=C1[C@H]2[C@H]3CCCN3[C@]3(C(=O)Nc4c(Cl)cc(Cl)cc43)[C@H]2C(=O)N1c1cc(Cl)cc(Cl)c1 (single isomer, unassigned) [Example 1] | +++ (NAUC “+++” refers to an observed NAUC >170% of positive control) | +++ (NAUC “+++” refers to an observed NAUC >170% of positive control)
4 | COc1c(Cl)cc(N2C(=O)C3C4C[C@H](Cl)CN4C4(C(=O)Nc5c(Cl)cc(Cl)cc54)C3C2=O)cc1Cl (some centres unmarked) [Example 79] | +++ (NAUC “+++” refers to an observed NAUC >170% of positive control) | +++ (NAUC “+++” refers to an observed NAUC >170% of positive control)
5 | [2H]C12C(=O)N(c3cc(Cl)cc(Cl)c3)C(=O)C1([2H])C1(C(=O)Nc3c(Cl)cc(Cl)cc31)N1C[C@@H](O)CC12 (single isomer, unassigned) [Example 84] | ++ (NAUC “++” refers to an observed NAUC 170-140% of positive control) | ++ (NAUC “++” refers to an observed NAUC 170-140% of positive control)
6 | O=C1C2C3CC(F)(F)CN3C3(C(=O)Nc4c(Cl)cc(Cl)cc43)C2C(=O)N1c1cc(Cl)cc(Cl)n1 (single isomer, unassigned) [Example 220] | +++ (NAUC “+++” refers to an observed NAUC >170% of positive control) | +++ (NAUC “+++” refers to an observed NAUC >170% of positive control)
7 | COc1cc(Cl)cc(N2C(=O)C3C4C[C@H](Cl)CN4C4(C(=O)Nc5c(Cl)cc(Cl)cc54)C3C2=O)c1 (single isomer, unassigned) [Example 107] | +++ (NAUC “+++” refers to an observed NAUC >170% of positive control) | +++ (NAUC “+++” refers to an observed NAUC >170% of positive control)
8 | CC(=O)Oc1c(Cl)cc(Cl)cc1N1C(=O)C2C3C[C@H](Cl)CN3C3(C(=O)Nc4c(Cl)cc(Cl)cc43)C2C1=O (some centres unmarked) [Example 93] | ++ (NAUC “++” refers to an observed NAUC 170-140% of positive control) | +++ (NAUC “+++” refers to an observed NAUC >170% of positive control)
9 | COc1cc(Cl)cc(N2C(=O)C3C4C[C@](C)(O)CN4C4(C(=O)Nc5c(Cl)cc(Cl)cc54)C3C2=O)c1 (single isomer, unassigned) [Example 256] | ++ (NAUC “++” refers to an observed NAUC 170-140% of positive control) | +++ (NAUC “+++” refers to an observed NAUC >170% of positive control)
10 | Cc1cc(CC2NC3(C(=O)Nc4c(Cl)cc(Cl)cc43)C3C(=O)N(c4cc(Cl)cc(Cl)c4)C(=O)C23)no1 (centres unmarked) [Example 237] | ++ (NAUC “++” refers to an observed NAUC 170-140% of positive control) | + (NAUC “+” refers to an observed NAUC <140% of positive control)
11 | O=C1C2C(Cc3ccc(F)cc3)NC3(C(=O)Nc4c(Cl)cc(Cl)cc43)C2C(=O)N1c1cc(Cl)cc(Cl)c1 (centres unmarked) [Example 196] | + (NAUC “+” refers to an observed NAUC <140% of positive control) | ++ (NAUC “++” refers to an observed NAUC 170-140% of positive control)
12 | O=C1C2C3C[C@H](O)CN3C3(C(=O)Nc4c(Cl)cc(Cl)cc43)C2C(=O)N1c1cc(C(F)(F)F)cc(C(F)(F)F)c1 (some centres unmarked) [Example 43] | ++ (NAUC “++” refers to an observed NAUC 170-140% of positive control) | +++ (NAUC “+++” refers to an observed NAUC >170% of positive control)
13 | O=C1C2C3CCCN3C3(C(=O)Nc4c(Cl)cc(Cl)cc43)C2C(=O)N1c1cccc(C(F)(F)F)c1 (single isomer, unassigned) [Example 24] | +++ (NAUC “+++” refers to an observed NAUC >170% of positive control) | +++ (NAUC “+++” refers to an observed NAUC >170% of positive control)
14 | O=C1C2C3C[C@H](O)CN3C3(C(=O)Nc4ccc(C(F)(F)F)cc43)C2C(=O)N1c1cc(Cl)cc(Cl)c1 (single isomer, unassigned) [Example 50] | ++ (NAUC “++” refers to an observed NAUC 170-140% of positive control) | + (NAUC “+” refers to an observed NAUC <140% of positive control)
15 | O=C1C2C3C[C@H](O)CN3C3(C(=O)Nc4c(Cl)cc(Cl)cc43)C2C(=O)N1c1cc(Cl)cc(Cl)c1 (single isomer, unassigned) [Example 46] | ++ (NAUC “++” refers to an observed NAUC 170-140% of positive control) | + (NAUC “+” refers to an observed NAUC <140% of positive control)
16 | Cc1cnc(CC2NC3(C(=O)Nc4c(Cl)cc(Cl)cc43)C3C(=O)N(c4cc(Cl)cc(Cl)c4)C(=O)C23)cn1 (centres unmarked) [Example 252] | ++ (NAUC “++” refers to an observed NAUC 170-140% of positive control) | ++ (NAUC “++” refers to an observed NAUC 170-140% of positive control)
17 | O=C1C2C3C[C@H](O)CN3C3(C(=O)Nc4c(Cl)cc(Cl)cc43)C2C(=O)N1c1cc(Cl)cc(Cl)n1 (some centres unmarked) [Example 59] | + (NAUC “+” refers to an observed NAUC <140% of positive control) | +++ (NAUC “+++” refers to an observed NAUC >170% of positive control)
18 | COc1cc(Cl)cc(N2C(=O)C3C4CCCN4C4(C(=O)Nc5c(Cl)cc(Cl)cc54)C3C2=O)c1 (single isomer, unassigned) [Example 105] | ++ (NAUC “++” refers to an observed NAUC 170-140% of positive control) | ++ (NAUC “++” refers to an observed NAUC 170-140% of positive control)
19 | COC1(OC)CC2C3C(=O)N(c4cc(Cl)cc(Cl)c4)C(=O)C3C3(C(=O)Nc4c(Cl)cc(Cl)cc43)N2C1 (centres unmarked) [Example 167] | + (NAUC “+” refers to an observed NAUC <140% of positive control) | ++ (NAUC “++” refers to an observed NAUC 170-140% of positive control)
20 | COc1c(Cl)cc(N2C(=O)C3C4C[C@H](C(F)(F)F)CN4C4(C(=O)Nc5c(Cl)cc(Cl)cc54)C3C2=O)cc1Cl (some centres unmarked) [Example 245] | +++ (NAUC “+++” refers to an observed NAUC >170% of positive control) | +++ (NAUC “+++” refers to an observed NAUC >170% of positive control)
21 | COc1c(Cl)cc(N2C(=O)C3C4CC(C)(C)CN4C4(C(=O)Nc5c(Cl)cc(Cl)cc54)C3C2=O)cc1Cl (single isomer, unassigned) [Example 140] | +++ (NAUC “+++” refers to an observed NAUC >170% of positive control) | +++ (NAUC “+++” refers to an observed NAUC >170% of positive control)
22 | CC(O)C1NC2(C(=O)Nc3c(Cl)cc(Cl)cc32)C2C(=O)N(c3cc(Cl)cc(Cl)c3)C(=O)C12 (centres unmarked) [Example 166] | ++ (NAUC “++” refers to an observed NAUC 170-140% of positive control) | ++ (NAUC “++” refers to an observed NAUC 170-140% of positive control)
23 | O=C1C2C(Cl)(C(=O)N1c1cc(Cl)cc(Cl)c1)C1CCCN1C21C(=O)Nc2c(Cl)cc(Cl)cc21 (centres unmarked) [Example 89] | + (NAUC “+” refers to an observed NAUC <140% of positive control) | ++ (NAUC “++” refers to an observed NAUC 170-140% of positive control)
24 | O=C(O)c1cccc(C2C3C(=O)N(c4cc(Cl)cc(Cl)c4)C(=O)C3C3CCCN32)c1 (centres unmarked) [Example 150] | + (NAUC “+” refers to an observed NAUC <140% of positive control) | ++ (NAUC “++” refers to an observed NAUC 170-140% of positive control)
25 | Cc1cccc(N2C(=O)C3C4CCCN4C4(C(=O)Nc5c(Cl)cc(Cl)cc54)C3C2=O)n1 (centres unmarked) [Example 183] | ++ (NAUC “++” refers to an observed NAUC 170-140% of positive control) | + (NAUC “+” refers to an observed NAUC <140% of positive control)
26 | N#Cc1ccccc1CC1NC2(C(=O)Nc3c(Cl)cc(Cl)cc32)C2C(=O)N(c3cc(Cl)cc(Cl)c3)C(=O)C12 (centres unmarked) [Example 186] | + (NAUC “+” refers to an observed NAUC <140% of positive control) | +++ (NAUC “+++” refers to an observed NAUC >170% of positive control)
27 | [2H]C12C(=O)N(c3cc(Cl)c(OC)c(Cl)c3)C(=O)C1([2H])C1(C(=O)Nc3c(Cl)cc(Cl)cc31)N1CC(C)(C)CC12 (centres unmarked) [Example 149] | +++ (NAUC “+++” refers to an observed NAUC >170% of positive control) | +++ (NAUC “+++” refers to an observed NAUC >170% of positive control)
28 | O=C1C2C3C[C@H](Cl)CN3C3(C(=O)Nc4c(Cl)cc(Cl)cc43)C2C(=O)N1c1cc(Cl)cc(Cl)c1O (some centres unmarked) [Example 96] | ++ (NAUC “++” refers to an observed NAUC 170-140% of positive control) | + (NAUC “+” refers to an observed NAUC <140% of positive control)

From US10072017B2, “Compounds and methods for the treatment of cystic fibrosis” (Flatley Discovery Lab, LLC, priority 2015, dated 2018)
